# According to patent US9296757B2, “Substituted benzothienopyrimidines” (BAYER PHARMA AKTIENGESELLSCHAFT, priority 2012, dated 2016):
# pIC50: −log10 of the molar value.
# Biological target: human full-length MKNK1 (Homo sapiens (Human), UniProt Q9BUB5, T344D)
# Assay: MKNK1 kinase high ATP assay (TR-FRET)
# Assay type: biochemical
# Conditions: high ATP (2 mM final), 15 min preincubation with enzyme
# Protocol: MKNK1-inhibitory activity at high ATP of compounds of the present invention after their preincubation with MKNK1 was quantified employing the TR-FRET-based MKNK1 high ATP assay as described in the following paragraphs.
# A recombinant fusion protein of Glutathione-S-Transferase (GST, N-terminally) and human full-length MKNK1 (amino acids 1-424 and T344D of accession number BAA 19885.1), expressed in insect cells using baculovirus expression system and purified via glutathione sepharose affinity chromatography, was purchased from Carna Biosciences (product no 02-145) and used as enzyme. As substrate for the kinase reaction the biotinylated peptide biotin-Ahx-IKKRKLTRRKSLKG (C-terminus in amide form) was used, which can be purchased e.g. from the company Biosyntan (Berlin-Buch, Germany).
# For the assay 50 nL of a 100 fold concentrated solution of the test compound in DMSO was pipetted into a black low volume 384 well microtiter plate (Greiner Bio-One, Frickenhausen, Germany), 2 μL of a solution of MKNK1 in aqueous assay buffer [50 mM HEPES pH 7.5, 5 mM MgCl2, 1.0 mM dithiothreitol, 0.005% (v/v) Nonidet-P40 (Sigma)] was added and the mixture was incubated for 15 min at 22° C. to allow pre-binding of the test compounds to the enzyme before the start of the kinase reaction. Then the kinase reaction was started by the addition of 3 μL of a solution of adenosine-tri-phosphate (ATP, 3.3 mM=>final conc. in the 5 μL assay volume is 2 mM) and substrate (0.1 μM=>final conc. in the 5 μL assay volume is 0.06 μM) in assay buffer and the resulting mixture was incubated for a reaction time of 30 min at 22° C. The concentration of MKNK1 was adjusted depending of the activity of the enzyme lot and was chosen appropriate to have the assay in the linear range, typical concentrations were in the range of 0.003 μg/mL. The reaction was stopped by the addition of 5 μL of a solution of TR-FRET detection reagents (5 nM streptavidine-XL665 [Cisbio Bioassays, Codolet, France] and 1 nM anti-ribosomal protein S6 (pSer236)-antibody from Invitrogen [#44921G] and 1 nM LANCE EU-W1024 labeled ProteinG [Perkin-Elmer, product no. AD0071]) in an aqueous EDTA-solution (100 mM EDTA, 0.1% (w/v) bovine serum albumin in 50 mM HEPES pH 7.5).
# The resulting mixture was incubated for 1 h at 22° C. to allow the formation of complex between the phosphorylated biotinylated peptide and the detection reagents. Subsequently the amount of phosphorylated substrate was evaluated by measurement of the resonance energy transfer from the Eu-chelate to the streptavidine-XL. Therefore, the fluorescence emissions at 620 nm and 665 nm after excitation at 350 nm were measured in a TR-FRET reader, e.g. a Rubystar (BMG Labtechnologies, Offenburg, Germany) or a Viewlux (Perkin-Elmer). The ratio of the emissions at 665 nm and at […] was taken as the measure for the amount of phosphorylated substrate. The data were normalised (enzyme reaction without inhibitor=0% inhibition, all other assay components but no enzyme=100% inhibition).
# Sequence of human full-length MKNK1 (Q9BUB5 other isoform, or with tags, fused parts or gaps T344D): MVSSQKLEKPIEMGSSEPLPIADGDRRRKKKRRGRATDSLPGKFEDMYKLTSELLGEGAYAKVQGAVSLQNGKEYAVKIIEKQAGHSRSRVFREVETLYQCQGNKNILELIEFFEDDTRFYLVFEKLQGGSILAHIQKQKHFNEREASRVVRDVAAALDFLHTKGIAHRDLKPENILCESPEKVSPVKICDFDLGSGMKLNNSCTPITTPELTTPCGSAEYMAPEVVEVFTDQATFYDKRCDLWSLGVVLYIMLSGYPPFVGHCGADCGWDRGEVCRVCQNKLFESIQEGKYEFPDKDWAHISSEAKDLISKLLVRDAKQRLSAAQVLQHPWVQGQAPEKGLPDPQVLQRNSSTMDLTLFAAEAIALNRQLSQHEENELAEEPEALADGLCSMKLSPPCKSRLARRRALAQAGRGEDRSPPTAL
row,Compound,pIC50
1,"CN1CCN(C(=O)C2CCc3c(sc4ncnc(Nc5ccc6[nH]c(=O)sc6c5)c34)C2)CC1 (racemic) [Example 29, (RS)-6-({7-[(4-Methylpiperazin-1-yl)carbonyl]-5,6,7,8-tetrahydro[1]benzothieno[2,3-d]pyrimidin-4-yl}amino)-1,3-benzothiazol-2(3H)-one]",7.32
2,"CCOC(=O)C1CCc2c(sc3ncnc(Nc4cc5sc(=O)[nH]c5cc4OC)c23)C1 (racemic) [Example 30, (RS)-Ethyl 4-[(5-methoxy-2-oxo-2,3-dihydro-1,3-benzothiazol-6-yl)amino]-5,6,7,8-tetrahydro[1]benzothieno[2,3-d]pyrimidine-7-carboxylate]",7.82
3,COc1cc2[nH]c(=O)sc2cc1Nc1ncnc2sc3c(c12)CCC(C(=O)NC(C)C)C3 (racemic) [Example 31],8.40
4,"CCCCN(CC#N)C(=O)C1CCc2c(sc3ncnc(Nc4ccc5[nH]c(=O)sc5c4)c23)C1 (racemic) [Example 34, (RS)-N-butyl-N-(cyanonmethyl)-4-[(2-oxo-2,3-dihydro-1,3-benzothiazol-6-yl)amino]-5,6,7,8-tetrahydro[1]benzothieno[2,3-d]pyrimidine-7-carboxamide]",7.70
5,"CN(C)CCN(C)C(=O)C1CCc2c(sc3ncnc(Nc4ccc5[nH]c(=O)sc5c4)c23)C1 (racemic) [Example 35, (RS)-N-[2-(dimethylamino)ethyl]-N-methyl-4-[(2-oxo-2,3-dihydro-1,3-benzothiazol-6-yl)amino]-5,6,7,8-tetrahydro[1]benzothieno[2,3-d]pyrimidine-7-carboxamide]",7.44
6,"CN(C)CCN(Cc1ccccc1)C(=O)C1CCc2c(sc3ncnc(Nc4ccc5[nH]c(=O)sc5c4)c23)C1 (racemic) [Example 36, (RS)-N-benzyl-N-[2-(dimethylamino)ethyl]-4-[(2-oxo-2,3-dihydro-1,3-benzothiazol-6-yl)amino]-5,6,7,8-tetrahydro[1]benzothieno[2,3-d]pyrimidine-7-carboxamide]",8.05
7,"CN1CCN(C(=O)C2CCc3c(sc4ncnc(Nc5ccc6[nH]c(=O)sc6c5)c34)C2)CC1 (racemic) [Example 37, (RS)-6-({7-[(4-methylpiperazin-1-yl)carbonyl]-5,6,7,8-tetrahydro[1]benzothieno[2,3-d]pyrimidin-4-yl}amino)-1,3-benzothiazol-2(3H)-one]",7.66
8,"O=C(C1CCc2c(sc3ncnc(Nc4ccc5[nH]c(=O)sc5c4)c23)C1)N1CCN(c2ccccn2)CC1 (racemic) [Example 40, (RS)-6-[(7-{[4-(pyridin-2-yl)piperazin-1-yl]carbonyl}-5,6,7,8-tetrahydro[1]benzothieno[2,3-d]pyrimidin-4-yl)amino]-1,3-benzothiazol-2(3H)-one]",7.19
9,"CCCCN(C)C(=O)C1CCc2c(sc3ncnc(Nc4ccc5[nH]c(=O)sc5c4)c23)C1 (racemic) [Example 41, (RS)-N-butyl-N-methyl-4-[(2-oxo-2,3-dihydro-1,3-benzothiazol-6-yl)amino]-5,6,7,8-tetrahydro[1]benzothieno[2,3-d]pyrimidine-7-carboxamide]",7.68
10,"COc1ccc(N(C)C(=O)C2CCc3c(sc4ncnc(Nc5ccc6[nH]c(=O)sc6c5)c34)C2)cc1 (racemic) [Example 42, (RS)-N-(4-methoxyphenyl)-N-methyl-4-[(2-oxo-2,3-dihydro-1,3-benzothiazol-6-yl)amino]-5,6,7,8-tetrahydro[1]benzothieno[2,3-d]pyrimidine-7-carboxamide]",7.33
11,"O=C(CN1CCN(C(=O)C2CCc3c(sc4ncnc(Nc5ccc6[nH]c(=O)sc6c5)c34)C2)CC1)N1CCCC1 (racemic) [Example 43, (RS)-6-{[7-({4-[2-oxo-2-(pyrrolidin-1-yl)ethyl]piperazin-1-yl}carbonyl)-5,6,7,8-tetrahydro[1]benzothieno[2,3-d]pyrimidin-4-yl]amino}-1,3-benzothiazol-2(3H)-one]",7.16
12,"O=C(C1CCc2c(sc3ncnc(Nc4ccc5[nH]c(=O)sc5c4)c23)C1)N1CCN(Cc2ccc3c(c2)OCO3)CC1 (racemic) [Example 44, (RS)-6-[(7-{[4-(1,3-benzodioxol-5-ylmethyl)piperazin-1-yl]carbonyl}-5,6,7,8-tetrahydro[1]benzothieno[2,3-d]pyrimidin-4-yl)amino]-1,3-benzothiazol-2(3H)-one]",7.17
13,"O=C(C1CCc2c(sc3ncnc(Nc4ccc5[nH]c(=O)sc5c4)c23)C1)N1CCC1 (racemic) [Example 45, (RS)-6-{[7-(azetidin-1-ylcarbonyl)-5,6,7,8-tetrahydro[1]benzothieno[2,3-d]pyrimidin-4-yl]amino}-1,3-benzothiazol-2(3H)-one]",7.15

# Second part, the molecule after the results:
row,pIC50,Compound
1,7.03,"[N-]=[N+]=NCC1CCc2c(sc3ncnc(Nc4ccc5[nH]c(=O)sc5c4)c23)C1 (racemic) [Example 19, (RS)-6-{[7-(Azidomethyl)-5,6,7,8-tetrahydro[1]benzothieno[2,3-d]pyrimidin-4-yl]amino}-1,3-benzothiazol-2(3H)-one]"
2,6.99,"NCC1CCc2c(sc3ncnc(Nc4ccc5[nH]c(=O)sc5c4)c23)C1 (racemic) [Example 20, (RS)-6-{[7-(Aminomethyl)-5,6,7,8-tetrahydro[1]benzothieno[2,3-d]pyrimidin-4-yl]amino}-1,3-benzothiazol-2(3H)-one]"
3,7.43,"CC(C)C(=O)NCC1CCc2c(sc3ncnc(Nc4ccc5[nH]c(=O)sc5c4)c23)C1 (racemic) [Example 21, (RS)-2-Methyl-N-({4-[(2-oxo-2,3-dihydro-1,3-benzothiazol-6-yl)amino]-5,6,7,8-tetrahydro[1]benzothieno[2,3-d]pyrimidin-7-yl}methyl)propanamide]"
4,7.23,"CC(C)NC(=O)NCC1CCc2c(sc3ncnc(Nc4ccc5[nH]c(=O)sc5c4)c23)C1 (racemic) [Example 22, (RS)-1-({4-[(2-Oxo-2,3-dihydro-1,3-benzothiazol-6-yl)amino]-5,6,7,8-tetrahydro[1]benzothieno[2,3-d]pyrimidin-7-yl}methyl)-3-propan-2-ylurea]"
5,7.21,"CC(C)OC(=O)NCC1CCc2c(sc3ncnc(Nc4ccc5[nH]c(=O)sc5c4)c23)C1 (racemic) [Example 24, (RS)-Propan-2-yl ({4-[(2-oxo-2,3-dihydro-1,3-benzothiazol-6-yl)amino]-5,6,7,8-tetrahydro[1]benzothieno[2,3-d]pyrimidin-7-yl}methyl)carbamate]"
6,7.38,"CC(C)(O)C(=O)NCC1CCc2c(sc3ncnc(Nc4ccc5[nH]c(=O)sc5c4)c23)C1 (racemic) [Example 25, (RS)-2-Hydroxy-2-methyl-N-({4-[(2-oxo-2,3-dihydro-1,3-benzothiazol-6-yl)amino]-5,6,7,8-tetrahydro[1]benzothieno[2,3-d]pyrimidin-7-yl}methyl)propanamide]"
7,7.08,"CC(O)C(=O)NCC1CCc2c(sc3ncnc(Nc4ccc5[nH]c(=O)sc5c4)c23)C1 (racemic) [Example 26, (2RS)-2-Hydroxy-N-({(7RS)-4-[(2-oxo-2,3-dihydro-1,3-benzothiazol-6-yl)amino]-5,6,7,8-tetrahydro[1]benzothieno[2,3-d]pyrimidin-7-yl}methyl)propanamide]"
8,6.86,"CC(C)S(=O)(=O)NCC1CCc2c(sc3ncnc(Nc4ccc5[nH]c(=O)sc5c4)c23)C1 (racemic) [Example 28, (RS)—N-({4-[(2-Oxo-2,3-dihydro-1,3-benzothiazol-6-yl)amino]-5,6,7,8-tetrahydro[1]benzothieno[2,3-d]pyrimidin-7-yl}methyl)propane-2-sulfonamide]"
